Measurements reported in US7741436B2, “Biologically active peptides and their use for repairing injured nerves” (priority 2001, dated 2010).

Columns and labels:
Format in all cases: cell-based
[1] = system: rat cerebellar granule neurons; test: Electrophysiology: voltage-clamped whole-cell patch recordings of currents induced by laminin-1-derived peptides and fusion proteins; settings: whole-cell patch clamp, neurons on laminin-1 substratum
Text: Sixteen-day pregnant Sprague-Dawley female rats were obtained from Taconic Farms, and maintained at the animal facility of National Institute of Alcohol Abuse and Alcoholism (NTH), fed with NTH-31 diet, containing 20,000 IU/kg vitamin A after autoclaving. The rats were allowed to give birth, and cerebellar tissues of 3-day-old female pups were aseptically isolated as described previously (Matsuzawa et al., 1996a). A suspension of single cells was obtained by trypsinizing the cerebella as described elsewhere (Liesi and Wright, 1996), after which 10^5 cells were plated on 22 mm glass coverslip pre-coated with laminin-1. The cells were incubated in an atmosphere of 95% air/5% CO2 at +37° C. in RPMI 1640 culture medium supplemented with penicillin and streptomycin and 200 μM L-glutamine. After 24 hrs, the cells were used for electrophysiology.
Recordings were done at room temperature using a List EPC-7 patch-clamp amplifier in voltage-clamped whole-cell patch configuration as described previously (Liesi and Wright, 1996). Pipettes were pulled from borosilicate glass and lightly fire polished. Experiments were performed at room temperature. Whole-cell currents were recorded on a Gould 2400S strip chart recorder. Cell membrane potential was clamped at −40 mV unless otherwise noted. All bath solutions were applied through pinch-valves that controlled the flow from multiple reservoirs to a single 200 μm ID barrel of fused silica. Standard bath solution was RPMI 1640, buffered with 10 mM HEPES (pH 7.4). The standard pipette solution contained (in mM): CsMeSO4 100, CsCl 15, BAPTA 5, HEPES 10 (pH KOH-adjusted to 7.2). Tests for reversal potentials were conducted in low K^+ bath solution containing (in mM): NaCl 150, KCl 5, CaCl2 1, HEPES 10 (pH adjusted to 7.2 with NaOH) and a high K^+ bath solution, containing (in mM): NaCl 115, KCl 40, CaCl2 1, HEPES 10 (pH adjusted to 7.2 with NaOH). All bath solutions contained 300 nM TTX. […] Nernst reversal potentials were calculated according to Hille (1992). […]

human CNS neurons = test: Attachment and neurite outgrowth of human embryonic CNS neurons on synthetic peptides coupled to glass; settings: 1 μg/ml, peptide coupled to glass, 24 hrs
Procedure: The cells were dissociated by trituration in a sterile culture medium (RPMI 1640) containing penicillin (100 U/ml), streptomycin (100 μg/ml) and 200 μM L-glutamine. The dissociated cells were plated on glass coverslips pre-coated (Liesi et al., 1989) with mouse laminin-1 (Boehringer-Mannheim, Germany) or with the peptides KDI-gc and RDIAEIIKDI-gc (SEQ ID NO: 1), as described elsewhere (Matsuzawa et al., 1996b). The peptides were from the Multiple Peptide Systems (La Jolla, Calif.). The cultures were maintained for 24 hrs, fixed in 2% paraformaldehyde, and processed for immunocytochemistry.
Immunocytochemistry for neuron specific tubulin isoform TUJ1 was performed as described elsewhere (Liesi et al., 2001). In short, the cells were permeabilized in methanol for 5 min at −20° C., washed in PBS and incubated with monoclonal TUJ1-antibodies for 1 hr at room temperature. The antibody was of high specificity and was used at 1:500 dilution. After immunocytochemistry, the coverslips were mounted in PBS:glycerol (1:1) and viewed with Olympus Provis fluorescence microscope with appropriate filter combinations.

[2] = system: human embryonic neocortical neurons; test: Survival of human embryonic neocortical neurons on injured glial cells of the human spinal cord; settings: 1 μg/ml soluble peptide, 72 hrs, vs lesion control
Text: The CNS tissues were first placed in cold saline. The spinal cord tissues were identified under a stereomicroscope, and carefully freed of meninges. To obtain monolayer cultures of human spinal cord glial cells, the cells were dissociated by mechanical trituration using a Pasteur-pipette, and placed in Petri dishes (Corning, N.Y., USA) containing 10% fetal calf serum (Hyclone, Logan, UH) in DMEM-F12 (Gibco, U.K.) supplemented with penicillin and streptomycin as described (Liesi et al. 2001).
Human embryonic spinal cord glial cells were cultured till confluency in 10% fetal bovine serum as described (Liesi et al., 2001). The confluent cultures were trypsinized and cells replated at 100 000 cells/22 mm glass coverslip, and grown till confluency. The confluent cultures were changed into normal adult human serum, and injured by using a 18 G gauge sterile needle. The KDI peptide was added at 1 μg/ml (3 μM) and at 10 μg/ml (30 μM) concentration and the P1543 peptide (p20) was added at a concentration of 1 μM, and 50-100 000 freshly isolated human embryonic neocortical neurons were added on the glial cells. The control cultures had neurons added either without the peptide or the lesion. The cells were cultured for 72 hrs in 5% CO2/95% air at +37° C., and fixed for quantitation of neurons and measurement of their neuritic lengths. The neurons on glial monolayers were visualized by immunostaining using mouse monoclonal antibodies against a neuron-specific tubulin isoform (TUJ1). The results were evaluated by counting neurons in six random fields on 3 different coverslip per experiment. In this way, more than 300 neurons were counted per experiment. Statistical analysis of the results was performed using one-way analysis of Varians (ANOVA) and Student-Newman-Keuls multiple comparisons test on the Instat (v2.03) program (GraphPad, San Diego, Calif.).

Substance	induction of currents in cerebellar granule neurons [1]	attachment and neurite outgrowth of human CNS neurons (human CNS neurons)	attachment and neurite outgrowth of neocortical neurons on lesioned spinal cord glial cells [2]
EIIKDI [6-amino acid peptide truncated from P1543]	induced currents		
RDIAEIIKDI [P1543, C-terminal neurite outgrowth decapeptide of the γ1-chain of laminin-1]	induced electrical currents	supported attachment and neurite outgrowth	significant (p<0.001) improvement
